Data from patent US20020086895A1, “Methods of treating fungal infections” (priority 1985, published 2002).

Experiments:
C. albicans = test: Antifungal screen of matrix-synthesis aurones in 96-well plates, C. albicans; assay type: cell-based, Candida albicans
Protocol: (§1) Thirty-eight 96-well plates were prepared with the above samples and tested against both C. albicans and A. fumigatus at either 8 μg/ml or 12.5 μg/ml. Plates with high activity were retested at the same concentration to confirm activity.
(§2) These compounds have formulae where W′ is OH, V is 3′,4′-(1,1-dimethylpropyloxy) to form a dihydropyran series, and X is selected from 3,4-dimethoxyphenyl, 4-t-butylphenyl, 2(prop-2-enyloxy)phenyl, 3-phenoxyphenyl, 3-ethoxy-4-hydroxyphenyl, 6-cyclohexenyl, and norborn-4-yl.

A. fumigatus = test: Antifungal screen of matrix-synthesis aurones in 96-well plates, A. fumigatus; assay type: cell-based, Aspergillus fumigatus
Protocol: as §1, §2

C=CCOc1ccccc1C=C1Oc2cc(O)c(CC=C(C)C)c(O)c2C1=O
CA percent inhibition (C. albicans; @12.5 μg/ml): 59%
AF percent inhibition (A. fumigatus; @12.5 μg/ml): 40%

CC(C)=CCc1c(O)cc2c(c1O)C(=O)C(=Cc1ccc(Oc3ccccc3)cc1)O2
AF percent inhibition (A. fumigatus; @12.5 μg/ml): CA 0% AF 0% @12.5 μg/ml

CC(C)=CCc1c(O)cc2c(c1O)C(=O)C(=Cc1cccc(O)c1O)O2
CA percent inhibition (C. albicans; @12.5 μg/ml): 94%
AF percent inhibition (A. fumigatus; @12.5 μg/ml): 31%

CC(C)=CCc1c(O)cc2c(c1O)C(=O)C(=Cc1ccc(O)c(O)c1O)O2
CA percent inhibition (C. albicans; @12.5 μg/ml): 89%
AF percent inhibition (A. fumigatus; @12.5 μg/ml): 0%

C=CCOc1ccccc1C=C1Oc2cc(O)cc(O)c2C1=O
CA percent inhibition (C. albicans; @12.5 μg/ml): 0%
AF percent inhibition (A. fumigatus; @12.5 μg/ml): 43%

O=C1C(=Cc2ccc(O)c(O)c2)Oc2cc(O)cc(O)c21
CA percent inhibition (C. albicans; @12.5 μg/ml): 95%
AF percent inhibition (A. fumigatus; @12.5 μg/ml): 36%

O=C1C(=Cc2ccc(Oc3ccccc3)cc2)Oc2cc(O)cc(O)c21
CA percent inhibition (C. albicans; @12.5 μg/ml): 57%
AF percent inhibition (A. fumigatus; @12.5 μg/ml): 48%

O=C1C(=Cc2cccc(O)c2O)Oc2cc(O)cc(O)c21
CA percent inhibition (C. albicans; @12.5 μg/ml): 79%
AF percent inhibition (A. fumigatus; @12.5 μg/ml): 27%

O=C1C(=Cc2ccc(O)c(O)c2O)Oc2cc(O)cc(O)c21
CA percent inhibition (C. albicans; @12.5 μg/ml): 94%
AF percent inhibition (A. fumigatus; @12.5 μg/ml): 44%

C=CCOc1ccccc1C=C1Oc2cc3c(c(O)c2C1=O)CCC(C)(C)O3
CA percent inhibition (C. albicans; @8 μg/ml): 67%
AF percent inhibition (A. fumigatus; @8 μg/ml): 94%

CC1(C)CCc2c(cc3c(c2O)C(=O)C(=Cc2ccc(O)c(O)c2)O3)O1
CA percent inhibition (C. albicans; @8 μg/ml): 87%
AF percent inhibition (A. fumigatus; @8 μg/ml): 0%

CC1(C)CCc2c(cc3c(c2O)C(=O)C(=Cc2ccc(Oc4ccccc4)cc2)O3)O1
CA percent inhibition (C. albicans; @8 μg/ml): 80%
AF percent inhibition (A. fumigatus; @8 μg/ml): 76%

CC1(C)CCc2c(cc3c(c2O)C(=O)C(=Cc2cccc(O)c2O)O3)O1
CA percent inhibition (C. albicans; @8 μg/ml): 96%
AF percent inhibition (A. fumigatus; @8 μg/ml): 52%

CC1(C)CCc2c(cc3c(c2O)C(=O)C(=Cc2ccc(O)c(O)c2O)O3)O1
CA percent inhibition (C. albicans; @8 μg/ml): 0%
AF percent inhibition (A. fumigatus; @8 μg/ml): 69%

C=CCOc1ccccc1C=C1Oc2cc(O)c(CC=C)c(O)c2C1=O
CA percent inhibition (C. albicans; @8 μg/ml): 53%
AF percent inhibition (A. fumigatus; @8 μg/ml): 96%

C=CCc1c(O)cc2c(c1O)C(=O)C(=Cc1ccc(O)c(O)c1)O2
CA percent inhibition (C. albicans; @8 μg/ml): CA 0% AF 0% @8 μg/ml
AF percent inhibition (A. fumigatus; @8 μg/ml): CA 0% AF 0% @8 μg/ml

C=CCc1c(O)cc2c(c1O)C(=O)C(=Cc1ccc(Oc3ccccc3)cc1)O2
CA percent inhibition (C. albicans; @8 μg/ml): 52%
AF percent inhibition (A. fumigatus; @8 μg/ml): 68%

C=CCc1c(O)cc2c(c1O)C(=O)C(=Cc1cccc(O)c1O)O2
CA percent inhibition (C. albicans; @8 μg/ml): 45%
AF percent inhibition (A. fumigatus; @8 μg/ml): 0%

C=CCc1c(O)cc2c(c1O)C(=O)C(=Cc1ccc(O)c(O)c1O)O2
CA percent inhibition (C. albicans; @8 μg/ml): 69%
AF percent inhibition (A. fumigatus; @8 μg/ml): 35%

CC(C)=CCc1c(O)cc2c(c1O)C(=O)C(=Cc1cc(C(C)(C)C)c(O)c(C(C)(C)C)c1)O2
CA percent inhibition (C. albicans; @12.5 μg/ml): 47%
AF percent inhibition (A. fumigatus; @12.5 μg/ml): 48%

CC(C)=CCc1c(O)cc2c(c1O)C(=O)C(=Cc1ccc(F)cc1F)O2
CA percent inhibition (C. albicans; @12.5 μg/ml): 0%
AF percent inhibition (A. fumigatus; @12.5 μg/ml): 40%

CCOc1ccc(C=C2Oc3cc(O)c(CC=C(C)C)c(O)c3C2=O)cc1OC
CA percent inhibition (C. albicans; @12.5 μg/ml): 25%
AF percent inhibition (A. fumigatus; @12.5 μg/ml): 49%

CCOc1ccccc1C=C1Oc2cc(O)c(CC=C(C)C)c(O)c2C1=O
CA percent inhibition (C. albicans; @12.5 μg/ml): 25%
AF percent inhibition (A. fumigatus; @12.5 μg/ml): 51%

COc1ccccc1C=C1Oc2cc(O)c(CC=C(C)C)c(O)c2C1=O
CA percent inhibition (C. albicans; @12.5 μg/ml): 15%
AF percent inhibition (A. fumigatus; @12.5 μg/ml): 39%

CC(C)(C)c1cc(C=C2Oc3cc(O)cc(O)c3C2=O)cc(C(C)(C)C)c1O
CA percent inhibition (C. albicans; @12.5 μg/ml): 17%
AF percent inhibition (A. fumigatus; @12.5 μg/ml): 35%

O=C1C(=Cc2ccc(F)cc2F)Oc2cc(O)cc(O)c21
CA percent inhibition (C. albicans; @12.5 μg/ml): 0%
AF percent inhibition (A. fumigatus; @12.5 μg/ml): 43%

CCOc1ccc(C=C2Oc3cc(O)cc(O)c3C2=O)cc1OC
AF percent inhibition (A. fumigatus; @12.5 μg/ml): CA 0% AF 0% @12.5 μg/ml

CCOc1ccccc1C=C1Oc2cc(O)cc(O)c2C1=O
AF percent inhibition (A. fumigatus; @12.5 μg/ml): CA 0% AF 0% @12.5 μg/ml

COc1ccccc1C=C1Oc2cc(O)cc(O)c2C1=O
AF percent inhibition (A. fumigatus; @12.5 μg/ml): CA 0% AF 0% @12.5 μg/ml

CC1(C)CCc2c(cc3c(c2O)C(=O)C(=Cc2cc(C(C)(C)C)c(O)c(C(C)(C)C)c2)O3)O1
CA percent inhibition (C. albicans; @8 μg/ml): 69%
AF percent inhibition (A. fumigatus; @8 μg/ml): 68%

CC1(C)CCc2c(cc3c(c2O)C(=O)C(=Cc2ccc(F)cc2F)O3)O1
CA percent inhibition (C. albicans; @8 μg/ml): 0%
AF percent inhibition (A. fumigatus; @8 μg/ml): 94%

CCOc1ccc(C=C2Oc3cc4c(c(O)c3C2=O)CCC(C)(C)O4)cc1OC
CA percent inhibition (C. albicans; @8 μg/ml): 58%
AF percent inhibition (A. fumigatus; @8 μg/ml): 67%

CCOc1ccccc1C=C1Oc2cc3c(c(O)c2C1=O)CCC(C)(C)O3
CA percent inhibition (C. albicans; @8 μg/ml): 80%
AF percent inhibition (A. fumigatus; @8 μg/ml): 71%
